# Measured values: patent US20240182431A1, “NEW CONTRAST AGENT FOR USE IN MAGNETIC RESONANCE IMAGING” (Bayer Aktiengesellschaft, priority 2021, published 2024)
# Tests used:
# [1] = Excretion study in rats (5 days) and residual gadolinium organ distribution (7 days); type: in vivo, rat; settings: male rats, 0.1 mmol Gd/kg bw i.v.
# Protocol: The excretion and organ distribution of Example 1 and 15 were determined in male rats (Han-Wistar, n=3). The compound was administered as a sterile aqueous solution (50 mmol Gd/L) as a bolus in the tail vein of the animals. The dose was 0.1 mmol Gd/kg bw.
# Urine was collected in the following time periods 0-1 h, 1-3 h, 3-6 h, 6-24 h, 1-2 d and 2-5 d post injection […] and feces 0-1 d, 1-2 d and 2-5 d post injection. As a control, 3 animals were treated in the same way with RC1. On day 7 the animals were sacrificed, and the following organs were excised: blood, liver, kidney, spleen, heart, lung, brain, muscle, skin, stomach, gut, bone and bone marrow. The remaining carcass was freeze dried and ground to a fine powder. The Gd concentration in the organs and the carcass was determined by ICP-MS (ICP-MS Agilent 7500a, Waldbronn, Germany). The compounds are excreted via dual pathway (liver and kidney). Less than 1% of the administered dose was present in the body 7 days after the injection.
# [2] = tested on: freshly isolated rat hepatocytes; test: Uptake into freshly isolated rat hepatocytes; type: cell-based
# Protocol: After incubation the adherent hepatocytes were washed once with 37° C. Hepes carbonate transport buffer (500 μL/well). The test items and RC1 were prepared from stock solutions (180 to 500 mM concentration) in Hepes carbonate transport buffer at pH 7.4 to reach a final concentration of 100 μmol Gd/L. The specific uptake of the test item or RC1 into rat hepatocytes via OATP1B1 and OATP1B3 was challenged using a known OATP1B1/1B3 inhibitor (Rifampicine, Fa. Sigma R3501, test item and inhibitor 1:1 each 100 μM final concentration). The prepared rat hepatocyte plates were incubated with test solutions (500 μL/well) at 37° C. for 10 min using a thermoshaker (Fa. Grant Bio, PHMP). Triplicates were performed for each test item. After incubating the cells were washed once with cold PBS buffer (Fa. Gibco, Dulbeccos PBS (+)). After washing the intact hepatocytes were lysed by addition of 500 μL cold 0.01% Triton-X 100 in Millipore water for 1 h. […] As a reference standard RC1 is used in the same well plate. The hepatocyte uptake of the test compound is calculated relative to RC1 (resulting in the unit % of RC1).
# [3] = Water solubility in aqueous buffer; type: physicochemical; settings: aqueous buffer 10 mM Tris-HCl, pH 7.4, 20° C.
# Protocol: The solid compounds were added stepwise to the buffer solution.
# More substance is added once all the suspended material is dissolved until an equilibrium between undissolved and dissolved substance is reached. The suspension was mixed using a shaker (Heidolph Reax 2000) and treated 5 mn in an ultrasound bath (Bandelin, Sonorex Super RK255H).
# [4] = 1.5 T, 37° C., from Rohrer et al., cited from earlier work
# [5] = In vivo pharmacokinetics following i.v. administration in rat; settings: i.v. bolus, dose 100 μmol/kg bw
# Protocol: Pharmacokinetic parameters of Example 1 and 15 and were determined in male and female rats (Han-Wistar, n=4). […] The samples were digested using strong acidic and oxidizing conditions at elevated temperature following dilution in 1% nitric acid to bring the samples in the quantification range of the method. The lower limit of quantitation amounts to 1 nmol/L for all elements and the upper limit to 1000 nmol/L in the diluted sample.
# The fit of the obtained data to a three-compartment model (Phoenix, WinNonlin 6.4, 3-compartment mode) yielded the pharmacokinetic parameters which are shown in Table 8.
# [6] = Complex stability (transmetallation with Zn2+); type: physicochemical; settings: 72 hours, 2.5 mM Zn^2+, 26 mM phosphate buffer, 37° C., pH 7.4
# From the text: If test compounds are instable under these conditions, transmetallation during this test would lead to the formation of the Zn^2+ complex of the test item, while Gd^3+ is released and precipitated as highly insoluble GdPO4.
# OATP1B3 = target: T1, OATP1B3 (Homo sapiens, UniProt Q9NPD5); test: Uptake into stable transfected OATP1B3 HEK 293 cells; type: cell-based
# T1 sequence (Q9NPD5 1-702): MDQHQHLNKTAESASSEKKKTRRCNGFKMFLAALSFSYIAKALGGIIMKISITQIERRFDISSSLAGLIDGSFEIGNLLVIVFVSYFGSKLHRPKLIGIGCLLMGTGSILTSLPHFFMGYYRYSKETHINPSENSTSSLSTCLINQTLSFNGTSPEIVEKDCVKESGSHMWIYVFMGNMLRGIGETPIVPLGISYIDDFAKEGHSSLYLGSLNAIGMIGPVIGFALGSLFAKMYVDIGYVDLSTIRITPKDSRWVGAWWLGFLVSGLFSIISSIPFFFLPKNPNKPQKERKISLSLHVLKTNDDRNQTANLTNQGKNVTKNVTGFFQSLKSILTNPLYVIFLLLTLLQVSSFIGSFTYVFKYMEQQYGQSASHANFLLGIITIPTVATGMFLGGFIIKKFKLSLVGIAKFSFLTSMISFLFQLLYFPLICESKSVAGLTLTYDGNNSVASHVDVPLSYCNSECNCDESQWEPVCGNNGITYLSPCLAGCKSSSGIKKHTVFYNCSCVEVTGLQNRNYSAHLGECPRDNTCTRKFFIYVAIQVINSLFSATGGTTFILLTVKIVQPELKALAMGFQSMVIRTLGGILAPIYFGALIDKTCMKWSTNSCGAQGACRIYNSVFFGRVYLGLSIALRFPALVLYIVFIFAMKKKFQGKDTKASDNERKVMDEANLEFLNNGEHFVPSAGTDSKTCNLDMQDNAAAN
# OATP1B1 = target: T2, OATP1B1 (Homo sapiens, UniProt Q9Y6L6); test: Uptake into stable transfected OATP1B1 HEK 293 cells; type: cell-based
# T2 sequence (Q9Y6L6 1-691): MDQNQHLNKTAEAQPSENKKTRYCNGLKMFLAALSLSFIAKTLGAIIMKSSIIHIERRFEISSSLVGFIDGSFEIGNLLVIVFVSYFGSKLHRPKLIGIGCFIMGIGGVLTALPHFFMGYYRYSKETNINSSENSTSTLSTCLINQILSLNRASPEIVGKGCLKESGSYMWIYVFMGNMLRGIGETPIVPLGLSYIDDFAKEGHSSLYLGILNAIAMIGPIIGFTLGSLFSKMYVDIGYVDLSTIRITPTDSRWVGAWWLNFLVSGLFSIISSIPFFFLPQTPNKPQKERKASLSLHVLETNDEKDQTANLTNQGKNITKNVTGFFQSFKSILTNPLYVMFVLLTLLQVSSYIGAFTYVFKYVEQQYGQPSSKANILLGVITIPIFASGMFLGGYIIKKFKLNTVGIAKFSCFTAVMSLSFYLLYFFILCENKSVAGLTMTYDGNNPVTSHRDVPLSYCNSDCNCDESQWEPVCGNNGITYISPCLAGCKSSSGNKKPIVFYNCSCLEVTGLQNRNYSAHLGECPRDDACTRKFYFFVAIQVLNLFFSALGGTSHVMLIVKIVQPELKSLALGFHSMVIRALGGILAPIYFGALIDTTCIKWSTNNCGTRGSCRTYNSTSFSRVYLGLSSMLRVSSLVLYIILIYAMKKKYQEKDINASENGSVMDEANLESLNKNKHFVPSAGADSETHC
# Protocol: Cryopreserved cells were shortly thawed in water bath and diluted in 10 mL warm culture medium (37° C.). After medium change the cells were grown for 3 d in a 25 cm^2 cell culture flask. After 3 to 5 d the cells were transferred into 75 cm^2 flasks. […] All test items were prepared in transport buffer at a final concentration of 100 μM from stock solutions (180 to 500 mM concentration). The OATP1B1 HEK 293 cells were incubated with test solutions (test item in transport buffer 500 μL) for 40 min on a thermoshaker without shaking (PHMP, Fa. Grant Bio). Triplicates were performed for each test item. After incubation the cells were washed with 2 mL of cold PBS (+) buffer (Dulbeccos PBS+, Fa. Gibco). The OATP1B1 HEK 293 cells were lysed by addition of 500 μL cold 0.01% Triton-X 100 in Millipore water for 1 h. […] After 1 h 500 μL of 1 nM Terbium ICP-MS standard was added in 2% nitric acid and 0.01% Triton 100.
# [7] = Partition coefficient (logP butanol/buffer); type: physicochemical; settings: 1-butanol / 50 mM Tris-HCl, pH 7.4, room temperature
# [8] = 100 μM, 40 min, relative to RC1
smiles,measurement,setting,value
"CCOc1ccc(C[C@@H](CN(CCN(CC(=O)[O-])CC(=O)[O-])CC(=O)[O-])N(CC(=O)[O-])CC(=O)[O-])cc1.[Gd+3].[H+].[H+] [RC1, Gd-EOB-DTPA]",Excretion Urine,[1]; 0-1 h post injection,23.2 ± 1.6% Dose
same,Excretion Feces,[1]; 0-1 d post injection,77.5 ± 2.7% Dose
same,Excretion Urine,[1]; 1-3 h post injection,23.5 ± 1.5% Dose
same,Excretion Feces,[1]; 1-2 d post injection,80.6 ± 2.9% Dose
same,Excretion Urine,[1]; 1-2 d post injection,23.7 ± 1.5% Dose
same,Excretion Feces,[1]; 2-5 d post injection,80.8 ± 2.9% Dose
same,Excretion Urine,[1]; 2-5 d post injection,23.7 ± 1.5% Dose
same,Excretion Urine,[1]; 3-6 h post injection,23.6 ± 1.5% Dose
same,Excretion Urine,[1]; 6-24 h post injection,23.7 ± 1.5% Dose
same,Σ organs and carcass,[1]; 7 d post injection,0.14 ± 0.08% Dose
same,Total recovery,[1],104.6 ± 2.4% Dose
same,Uptake rat hepatocytes,"[2]; 100 μmol Gd/L, 10 min, 37° C., relative to RC1",100 % of RC1
same,Inhibition Rifampicine,[2]; test item and Rifampicine 1:1 each 100 μM,97 % inhibition
same,Solubility,[3],>250 mM
same,r1 human plasma,[4]; bovine plasma instead of human plasma,5.2 L/mmol/s
same,r1 water,[4]; water,3.3 L/mmol/s
same,AUCnorm Area under the curve,[5],0.40 kg·h/L
same,Clplasma Plasma clearance,[5],40 mL/min/kg
same,Vss Volume of distribution at steady state,[5],0.9 L/kg
same,"t½ α Half-life, compartment V1",[5],2 min
same,"t½ β Half-life, compartment V2",[5],8 min
same,"t½ γ Half-life, compartment V3",[5],390 min
same,Transmetallation stability,[6],44%
same,Uptake into OATP1B3-HEK 293 cells,OATP1B3; [8],100 % of RC1
same,Inhibition Rifampicine,OATP1B3; OATP1B3-HEK 293 cells,99 % inhibition
same,Uptake into OATP1B1-HEK 293 cells,OATP1B1; [8],100 % of RC1
same,Inhibition Rifampicine,OATP1B1; OATP1B1-HEK 293 cells,81 % inhibition
same,Log P (butanol/buffer),[7],−2.12
